Legend:
Bovine endothelial cells [1] = assay: Attachment of endothelial cells to modified plastic surfaces (viable cell counts, trypan blue); assay type: cell-based; conditions: treated polyvinyl chloride surface; number of viable cells attached to each piece
Procedure: B. Attachment of Bovine Endothelial Cells to Modified Plastic Surfaces. Bovine endothelial cells were collected from fetal animals 8-24" in length. Cornea, aorta and umbilical endothelial cells were harvested aseptically. Cells were grown in a 5% CO₂ incubator at 37°C in a known high glucose cell growth medium such as Dulbecco's modified Eagle's medium (described in R. Dulbecco and G. Freeman, Virology, Vol. 8:396 (1959) and J. D. Smith, G. Freeman, M. Vogt and R. Dulbecco, Virology, Vol. 12:185-196 (1960)) with 25mmole HEPES buffer, 10% bovine calf serum, and 2.5 micrograms amphotericin B/ml (the "growth media"). Once the plates, tubes or sheets were prepared; cell cultures were prepared from primary cell lines. The cells were detached from the cell culture surface with a 0.25% solution of trypsin and resuspended in the growth media. Cells were then counted using a trypan blue (0.4%) solution and a hemocytometer. Various concentrations of cells were layered on the prepared materials. Cell attachment was monitored for various time periods from 5 minutes to 14 days. Attachments were determined by at least two methods. In one, sample materials were removed from culture media and washed 2 times with sterile saline. Cell stains were then applied and total cells on the surface were counted. A second method was to trypsinize the cells off the surface with a trypsin solution and count using the trypan blue method. Representive results of the attachment and outgrowth of endothelial cells on precoated polyvinyl chloride plastic pieces are reported in Table 3. The number of viable cells attached to each piece were determined by trypan blue staining procedures.

Bovine endothelial cells [2] = assay: Outgrowth measurement using endothelial cells from a point of origin; assay type: cell-based; conditions: treated polyvinyl chloride surface

With “BBA-COL: Human placenta Type IV collagen coupled to the NOS ester of benzoylbenzoic acid” the 3-day cell counts (Bovine endothelial cells [1]) was 5749, the 7-day cell counts (Bovine endothelial cells [1]) was 21500 and the 7-day outgrowth (Bovine endothelial cells [2]) was 2.5-4.0 mm.
In the case of “ANP-EAC-COL: Human placenta Type IV collagen coupled to ANP-EAC-NOS (photolabeled collagen)”, the 3-day cell counts (Bovine endothelial cells [1]) is reported as 14500, the 7-day cell counts (Bovine endothelial cells [1]) is reported as 15833 and the 7-day outgrowth (Bovine endothelial cells [2]) is reported as 1.0-3.0 mm.

— patent EP0326579B1, “IMPROVEMENT OF THE BIOCOMPATIBILITY OF SOLID SURFACES” (BIO-METRIC SYSTEMS, INC., priority 1986, dated 1988)
